Test results published in ChEMBL document CHEMBL5257019, “An Overview of Severe Acute Respiratory Syndrome-Coronavirus (SARS-CoV) 3CL Protease Inhibitors: Peptidomimetics and Small Molecule Chemotherapy” (J Med Chem, 2016).

Assays:
Cytochrome P450 2D6 = Cytochrome P450 2D6 (Homo sapiens, UniProt P10635); assay: Inhibition of CYP2D6 (unknown origin); type: ADME
[1] = Plasma protein binding in rat assessed as unbound fraction; type: ADME
Cytochrome P450 1A2 = target: T1, Cytochrome P450 1A2 (Homo sapiens, UniProt P05177); assay: Inhibition of CYP1A2 (unknown origin); type: ADME
T1 sequence (P05177 whole entry): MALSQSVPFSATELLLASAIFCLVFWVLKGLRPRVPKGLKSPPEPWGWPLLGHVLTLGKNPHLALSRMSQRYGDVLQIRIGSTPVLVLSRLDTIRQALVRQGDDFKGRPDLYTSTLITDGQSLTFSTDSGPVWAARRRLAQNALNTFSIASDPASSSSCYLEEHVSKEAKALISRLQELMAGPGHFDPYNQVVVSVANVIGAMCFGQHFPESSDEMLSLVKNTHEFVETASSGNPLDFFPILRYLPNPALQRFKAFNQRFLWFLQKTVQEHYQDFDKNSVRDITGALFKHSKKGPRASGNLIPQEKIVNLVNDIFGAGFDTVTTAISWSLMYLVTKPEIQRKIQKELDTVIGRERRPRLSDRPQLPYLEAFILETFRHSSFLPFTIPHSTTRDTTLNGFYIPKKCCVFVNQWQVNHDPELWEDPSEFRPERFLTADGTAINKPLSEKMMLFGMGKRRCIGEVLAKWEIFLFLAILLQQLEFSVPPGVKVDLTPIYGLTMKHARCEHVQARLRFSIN

Cytochrome P450 3A4 = Cytochrome P450 3A4 (Homo sapiens, UniProt P08684); assay: Inhibition of CYP3A4 (unknown origin); type: ADME
Cytochrome P450 3A4, sequence (P08684 whole entry): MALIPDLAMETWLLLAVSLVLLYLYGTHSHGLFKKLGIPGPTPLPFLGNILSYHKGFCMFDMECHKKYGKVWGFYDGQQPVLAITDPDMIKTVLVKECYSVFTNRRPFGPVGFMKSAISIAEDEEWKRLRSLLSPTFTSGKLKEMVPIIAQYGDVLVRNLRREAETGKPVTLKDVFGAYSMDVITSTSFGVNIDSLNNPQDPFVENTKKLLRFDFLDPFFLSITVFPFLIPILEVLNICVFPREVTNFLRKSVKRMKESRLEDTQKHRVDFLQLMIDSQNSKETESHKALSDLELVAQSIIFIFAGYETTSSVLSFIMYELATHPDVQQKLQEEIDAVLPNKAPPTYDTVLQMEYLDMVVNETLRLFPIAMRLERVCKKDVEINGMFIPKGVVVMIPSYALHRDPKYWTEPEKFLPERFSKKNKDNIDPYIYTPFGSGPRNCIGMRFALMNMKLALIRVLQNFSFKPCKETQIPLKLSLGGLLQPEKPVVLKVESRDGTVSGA

Cytochrome P450 2C9 = Cytochrome P450 2C9 (Homo sapiens, UniProt P11712); assay: Inhibition of CYP2C9 (unknown origin); type: ADME
Cytochrome P450 2C9, sequence (P11712 whole entry): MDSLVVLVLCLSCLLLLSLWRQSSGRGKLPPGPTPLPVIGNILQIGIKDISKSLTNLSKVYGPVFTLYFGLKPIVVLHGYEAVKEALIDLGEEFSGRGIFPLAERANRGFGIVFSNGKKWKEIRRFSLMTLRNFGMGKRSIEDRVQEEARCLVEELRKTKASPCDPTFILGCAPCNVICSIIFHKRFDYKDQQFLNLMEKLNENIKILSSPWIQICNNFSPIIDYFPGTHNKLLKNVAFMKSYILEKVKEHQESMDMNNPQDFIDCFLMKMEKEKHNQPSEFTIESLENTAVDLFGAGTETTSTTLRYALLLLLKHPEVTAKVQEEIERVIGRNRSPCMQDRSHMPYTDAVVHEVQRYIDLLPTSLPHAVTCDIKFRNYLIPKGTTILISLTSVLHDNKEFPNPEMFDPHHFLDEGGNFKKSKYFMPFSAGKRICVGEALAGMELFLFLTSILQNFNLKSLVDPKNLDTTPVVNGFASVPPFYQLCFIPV

[2] = Plasma protein binding in human assessed as unbound fraction; type: ADME
[3] = target: T2, Replicase polyprotein 1ab (Severe acute respiratory syndrome coronavirus 2, UniProt P0DTD1); assay: Inhibition of SARS-CoV-2 3CL protease using 2-aminobenzoyl-SVTLQSG-Tyr(NO2)-R as substrate
[4] = target: Replicase polyprotein 1ab (Severe acute respiratory syndrome coronavirus 2) (UniProt P0DTD1); assay: Inhibition of SARS-CoV-2 3CL protease at 100 uM relative to control
[5] = target: T2, Replicase polyprotein 1ab; assay: Inhibition of N terminal his tagged SARS-CoV-2 3CL protease by FRET assay
[6] = Inhibition of SARS-CoV 3CL protease using 2-aminobenzoyl-SVTLQSG-Tyr(NO2)-R as substrate; set-up: species or system Severe acute respiratory syndrome-related coronavirus
[7] = target: T2, Replicase polyprotein 1ab; assay: Inhibition of SARS-CoV-2 3CL protease by FRET assay
[8] = target: Replicase polyprotein 1ab (Severe acute respiratory syndrome coronavirus 2) (UniProt P0DTD1); assay: Inhibition of SARS-CoV-2 3CL protease assessed as ratio of Kinact/Ki
[9] = target: T2, Replicase polyprotein 1ab; assay: Inhibition of SARS-CoV-2 3CL protease using Dabcyl-Leu-Ala-Gln-Ala-Val-Arg-Ser-Ser-Ser-Arg-Edans as substrate
[10] = target: T2, Replicase polyprotein 1ab; assay: Inhibition of SARS-CoV-2 3CL protease using Dabcyl-KTSAVLQSGFRKME-Edans as substrate assessed as inhibition constant by flurogenic assay

Cytochrome P450 2D6, sequence (P10635 whole entry): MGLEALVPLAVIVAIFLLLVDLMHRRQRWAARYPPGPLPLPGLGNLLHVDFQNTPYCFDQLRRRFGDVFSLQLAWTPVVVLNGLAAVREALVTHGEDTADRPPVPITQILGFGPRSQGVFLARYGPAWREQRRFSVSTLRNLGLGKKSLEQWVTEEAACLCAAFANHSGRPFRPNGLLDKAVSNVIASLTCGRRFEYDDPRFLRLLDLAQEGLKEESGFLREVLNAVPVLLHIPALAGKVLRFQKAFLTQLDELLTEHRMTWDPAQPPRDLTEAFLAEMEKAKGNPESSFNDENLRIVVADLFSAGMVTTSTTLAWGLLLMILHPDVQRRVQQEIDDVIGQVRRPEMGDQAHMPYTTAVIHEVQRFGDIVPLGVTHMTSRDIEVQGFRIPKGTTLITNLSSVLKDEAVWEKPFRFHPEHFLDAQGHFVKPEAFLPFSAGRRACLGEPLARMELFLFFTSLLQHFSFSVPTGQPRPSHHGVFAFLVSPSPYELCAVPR

Cn1ccc(CN(C(=O)Cn2nnc3ccccc32)c2ccc(NC(=O)C3CC3)cc2)c1 gave an IC50 (Cytochrome P450 2D6) of 8.4 µM, a fraction unbound [1] of 0.106 and an IC50 (Cytochrome P450 1A2) of 7.7 µM. It also gave an IC50 (Cytochrome P450 3A4) of 4.6 µM, an IC50 (Cytochrome P450 2C9) of 7.2 µM and a fraction unbound [2] of 0.048.

Molecule O=C(CSc1nc(C2CCCCC2)nc2ccccc12)NCc1ccco1 has an IC50 [3] of 18.2 µM.

For CC(=O)N[C@H](C(=O)N[C@H](C(=O)N[C@@H](CC(C)C)C(=O)N[C@@H](C[C@@H]1CCNC1=O)C(=O)c1cccs1)[C@@H](C)O)C(C)C, the inhibition [4] was 23%.

In the case of CC(C)(C)NC(=O)C(c1cccnc1)N(C(=O)c1ccco1)c1ccc(C(C)(C)C)cc1 (stereo not drawn), the IC50 (Cytochrome P450 2D6) is reported as > 30 µM, the fraction unbound [1] is reported as 0.026 and the IC50 (Cytochrome P450 1A2) is reported as > 30 µM. The IC50 (Cytochrome P450 2C9) was 9.1 µM and the fraction unbound [2] was 0.033.

With O=C(Oc1cncc(Cl)c1)c1cc2ccccc2[nH]1 the IC50 [5] was 0.065 µM.

Molecule OCC1C(COCc2ccccc2)CC1n1cnc2c(Cl)ncnc21 (stereo not drawn) has an IC50 [6] of 14.5 µM.

Molecule CC(=O)N[C@H](C(=O)N[C@H](C(=O)N[C@@H](CC(C)C)C(=O)N[C@@H](Cc1ccccc1)C(=O)Cn1[nH]c(=O)c2ccccc2c1=O)[C@@H](C)OCc1ccccc1)C(C)C has an inhibition [4] of 72%.

With COC(=O)c1cc2c(O)cc(C(F)(F)F)cc2o1 the IC50 [3] was 4.3 µM.

For O=c1c(OC[C@H]2O[C@@H](O)[C@H](O)[C@@H](O)[C@H]2O)c(-c2ccc(O)c(O)c2)oc2cc(O)cc(O)c12, the IC50 [7] was 42.8 µM.

Molecule CCOC(=O)[C@@H]1OC1C(=O)N(CCC(N)=O)NC(=O)[C@H](Cc1ccccc1)NC(=O)[C@H](CC(C)C)NC(=O)OCc1ccccc1 (stereo partly drawn) has a Ratio [8] of 1900 M/s.

Molecule O=C(O)c1ccc(/N=C/c2c(O)ccc3c2C2CCCCC2O3)cc1 (stereo not drawn) has an EC50 [9] of 23 µM.

In the case of O=C(On1nnc2ccccc21)c1ccc2[nH]ccc2c1, the Ki [10] is reported as 0.0075 µM.

O=C(Oc1cncc(Cl)c1)c1cccs1 showed an IC50 [5] of 0.5 µM.

Cc1cc2cc(CN(CCc3ccccc3C)C(=O)NCc3ccccc3)c(=O)[nH]c2cc1C gave an IC50 [3] of 17.2 µM.
